Laboratory results: patent EP1388586A2, “Identification of broadly reactive DR restricted epitopes” (priority 1998, dated 1999)
Read-outs that look alike come from different tables or passages of the source. Square brackets hold non-standard residues; d marks the D form. Ends that are not written are not given here. Peptide text beside a SMILES is read from it.

Legend:
[1] = test system: panel of purified HLA DR molecules; format: binding, human;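 also: competitive inhibition of radiolabeled probe peptide binding to purified HLA DR molecules, with inhibitory potency of unlabeled peptides taken as an approximation of affinity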
Method: (§1) Class II peptide-binding assays. […] These assays were chosen as to be representative of the most common DR alleles.
(§2) Radiolabeled peptides were iodinated using the chloramine-T method. […] In appropriate stoichiometric conditions, the IC50 of an unlabeled test peptide to the purified DR is a reasonable approximation of the affinity of interaction (Kd). Peptides were tested in two to four completely independent experiments. […] Final detergent concentration in the incubation mixture was 0.05% Nonidet P-40. Assays were performed at pH 7.0 with the exception of DR3, which was performed at pH 4.5, and DRw53, which was performed at pH 5.0.
(§3) All subsequent inhibition and direct binding assays were the performed using these class II concentrations.

DRB1*0101 (DR1) = molecular target: T1, DRB1*0101 (DR1) (Homo sapiens, UniProt P01903+P01911, A100R/D57E/F55L/F60I/F76Y/I96L/L162R/M171V/P40L/Q125E/R42F/V115G/Y59C); experiment: Class II peptide-binding assay, DR1;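 also: competition assay: unlabeled test peptides inhibit binding of a radiolabeled probe peptide to purified DR, with half-maximal inhibition taken as an approximate dissociation constant Kd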
T1 construct: used as sources of human HLA class II molecules; endogenous in cells; host or cells: LG2 (EBV-transformed homozygous B cell line)

DRB5*0101 (DR2w2a) = molecular target: T2, DRB5*0101 (DR2w2a) (Homo sapiens, UniProt P01903+Q30154); experiment: Class II peptide-binding assay, DR2w2a (DR2w2B2);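 also: competitive binding assay: unlabeled peptide inhibiting binding of a radiolabeled probe peptide to purified DR molecules at pH 7.0, IC50 approximating Kd, lower means stronger binding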
T2 construct: used as sources of human HLA class II molecules; endogenous in cells; host or cells: GM3107 (EBV-transformed homozygous B cell line)

DRB1*0301 (DR3w17) = molecular target: T3, DRB1*0301 (DR3w17) (Homo sapiens, UniProt P01903+P01911, A100K/A102G/A103R/A169T/F55Y/I96L/K41T/L162R/M171V/P40S/Q125H/Q178H/Q39Y/R42S/S66N/T106N/T262R/W38E/Y61H); experiment: Class II peptide-binding assay, DR3 (pH 4.5);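 also: unlabeled peptide competing with a radiolabeled probe peptide for binding to affinity-purified HLA-DR3, IC50 regarded as an approximation of Kd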
T3 construct: used as sources of human HLA class II molecules; endogenous in cells; host or cells: MAT (EBV-transformed homozygous B cell line)
T3 sequence (P01903 26-254, other chains not shown): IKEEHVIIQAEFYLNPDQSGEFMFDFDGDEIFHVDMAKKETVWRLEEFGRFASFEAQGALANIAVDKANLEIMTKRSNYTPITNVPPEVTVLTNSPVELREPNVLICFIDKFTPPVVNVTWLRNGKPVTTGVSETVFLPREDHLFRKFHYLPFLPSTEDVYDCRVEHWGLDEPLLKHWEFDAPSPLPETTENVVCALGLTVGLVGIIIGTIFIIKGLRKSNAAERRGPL
Method: as §1
In appropriate stoichiometric conditions, the IC50 of an unlabeled test peptide to the purified DR is a reasonable approximation of the affinity of interaction (Kd). Peptides were tested in two to four completely independent experiments. […] Final detergent concentration in the incubation mixture was 0.05% Nonidet P-40. Assays were performed at pH 7.0 with the exception of DR3, which was performed at pH 4.5, and DRw53, which was performed at pH 5.0.
as §3

DRB1*0401 (DR4w4) = molecular target: T4, DRB1*0401 (DR4w4) (Homo sapiens, UniProt P01903+P01911, A100K/A169T/F76Y/I96L/K127E/L162R/M171V/N62H/P40V/Q125Y/R42H/S133A/S149N/S66Y/V115G/V209L/W38E); experiment: Class II peptide-binding assay, DR4w4;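 also: unlabeled test peptides compete with a radiolabeled probe peptide for binding to affinity-purified HLA-DR, with DR amount titrated to capture a small fraction of label, IC50 approximating Kd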
T4 construct: used as sources of human HLA class II molecules; endogenous in cells; host or cells: PREISS (EBV-transformed homozygous B cell line)

DRB10404 (DR4w14) = molecular target: T5, DRB10404 (DR4w14) (Homo sapiens, UniProt P01903+P01911, A100R/A169T/F76Y/I96L/K127E/L162R/M171V/N62H/P40V/Q125Y/R42H/S133A/S149N/S66Y/V209L/W38E); experiment: Class II peptide-binding assay, DR4w14;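 also: unlabeled peptides compete with a radiolabeled probe for binding to affinity-purified HLA-DR, neutral pH, class II amount titrated to bind a small fraction of label, IC50 approximates Kd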
T5 construct: used as sources of human HLA class II molecules; endogenous in cells; host or cells: BIN40 (EBV-transformed homozygous B cell line)

DRB1*1101 (DR5w11) = molecular target: T6, DRB1*1101 (DR5w11) (Homo sapiens, UniProt P01903+P01911, A100R/A169T/A87E/I96F/K41T/L162R/M171V/P40S/Q125H/Q178H/Q39Y/Q99D/R42S/S66Y/T262R/V115G/W38E); experiment: Class II peptide-binding assay, DR5w11;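 also: competition by unlabeled test peptide against iodinated probe peptide binding to affinity-purified HLA-DR, class II amount titrated beforehand, half-maximal inhibitory concentration read as approximate Kd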
T6 construct: used as sources of human HLA class II molecules; endogenous in cells; host or cells: SWEIG (EBV-transformed homozygous B cell line)
T6 sequence (P01903 26-254, other chains not shown): as above

DRB1*0701 (DR7) = DRB1*0701 (DR7) (Homo sapiens, UniProt P01903+P01911, A100R/A102G/A103Q/D57E/D86V/E43K/F76Y/K127E/L162R/M171V/P40G/Q125H/Q99D/R33Q/R42Y/R54Q/S133A/S66F/T210M/V115G/Y107V/Y59L/Y89S); experiment: Class II peptide-binding assay, DR7;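 also: unlabeled peptides compete with an iodinated probe peptide for binding to affinity-purified HLA-DR at neutral pH, DR amount titered to bind a small tracer fraction, IC50 approximating Kd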
Method: as §1, §2, §3

[2] = read-out: DR1 nM (In IC50 Format), purified HLA DR1
[3] = read-out: DR2w2B2 nM (In IC50 Format), purified HLA DR2w2β2
[4] = read-out: DR3 nM (In IC50 Format), purified HLA DR3
[5] = read-out: DR4w4 nM (In IC50 Format), purified HLA DR4w4
[6] = read-out: DR4w14 nM (In IC50 Format), purified HLA DR4w14
[7] = read-out: DR5w11 nM (In IC50 Format), purified HLA DR5w11
[8] = read-out: DR7 nM (In IC50 Format), purified HLA DR7
[9] = read-out: DR1 nM, Table VIII, In IC50 Format
[10] = read-out: DR2w2B2 nM, Table VIII, In IC50 Format
[11] = read-out: DR3 nM, Table VIII, In IC50 Format
[12] = read-out: DR4w4 nM, Table VIII, In IC50 Format
[13] = read-out: DR4w14 nM, Table VIII, In IC50 Format
[14] = read-out: DR5w11 nM, Table VIII, In IC50 Format
[15] = read-out: DR7 nM, Table VIII, In IC50 Format

| Compound | total of DR molecules bound [1] | Total Alleles Bound ([1]; Table V B) Correct Predictions, 12 DR molecules listed) | IC50 (DRB1*0101 (DR1); [2]) | IC50 (DRB5*0101 (DR2w2a); [3]) | IC50 (DRB1*0301 (DR3w17); [4]) | IC50 (DRB1*0401 (DR4w4); [5]) | IC50 (DRB10404 (DR4w14); [6]) | IC50 (DRB1*1101 (DR5w11); [7]) | IC50 (DRB1*0701 (DR7); [8]) | IC50 (DRB1*0101 (DR1); [9]) | IC50 (DRB5*0101 (DR2w2a); [10]) | IC50 (DRB1*0301 (DR3w17); [11]) | IC50 (DRB1*0401 (DR4w4); [12]) | IC50 (DRB10404 (DR4w14); [13]) | IC50 (DRB1*1101 (DR5w11); [14]) | IC50 (DRB1*0701 (DR7); [15]) |
| --- | --- | --- | --- | --- | --- | --- | --- | --- | --- | --- | --- | --- | --- | --- | --- | --- |
| CC(C)C[C@H](NC(=O)CN)C(=O)N[C@@H](C)C(=O)N[C@@H](Cc1ccc(O)cc1)C(=O)N[C@@H](CCCCN)C(=O)N[C@@H](Cc1ccccc1)C(=O)N[C@H](C(=O)N[C@H](C(=O)N1CCC[C@H]1C(=O)NCC(=O)N[C@@H](C)C(=O)N[C@@H](C)C(=O)N[C@H](C(=O)N1CCC[C@H]1C(=O)N[C@@H](Cc1ccc(O)cc1)C(=O)O)[C@@H](C)O)C(C)C)C(C)C [Peptide 1188.32] | nine | – | – | – | – | – | – | – | – | – | – | – | – | – | – | – |
| CC(C)[C@H](NC(=O)[C@H](Cc1ccccc1)NC(=O)[C@@H](N)CCCCN)C(=O)N[C@H](C(=O)N1CCC[C@H]1C(=O)NCC(=O)N[C@@H](C)C(=O)N[C@@H](C)C(=O)N[C@H](C(=O)N1CCC[C@H]1C(=O)N[C@@H](Cc1ccc(O)cc1)C(=O)N[C@@H](C)C(=O)NCC(=O)N[C@@H](CCC(=O)O)C(=O)N1CCC[C@H]1C(=O)O)[C@@H](C)O)C(C)C [Peptide F107.17] | – | 4 | – | – | – | – | – | – | – | – | – | – | – | – | – | – |
| YAAYVKLTAARKFA-NH2 [Peptide 806.03] | – | – | 2.1 nM | 0.7 nM | 23100 nM | 21.4 nM | 4550 nM | 1.3 nM | 4.4 nM | – | – | – | – | – | – | – |
| LLVIVELIPSTSS [Peptide 778.00] | – | – | 67.6 nM | 2220 nM | 60000 nM | 28.1 nM | 82.5 nM | 1110 nM | 5000 nM | – | – | – | – | – | – | – |
| DTVKLMYKGQPMTFRLLLV [Peptide 866.01] | – | – | – | – | – | – | – | – | – | 23 nM | 7.7 nM | 42900 nM | 176 nM | 10000 nM | 169 nM | 3570 nM |
| LSGSHLVEALYLVSGERGFF [Peptide 734.02] | – | – | 14.4 nM | 2860 nM | 30000 nM | 865 nM | 1020 nM | 10000 nM | 124 nM | – | – | – | – | – | – | – |
| NPVVHFFKNIVTPRTPPPS [Peptide 765.09] | – | – | 13.5 nM | 158 nM | 50000 nM | 7.4 nM | 35.7 nM | 18.7 nM | 66.8 nM | – | – | – | – | – | – | – |
| LVEALYLVSGERGFFYTPKT [Peptide 734.03] | – | – | 39.7 nM | 1820 nM | 1570 nM | 1150 nM | 704 nM | 2500 nM | 926 nM | – | – | – | – | – | – | – |
| CC(C)C[C@H](NC(=O)[C@@H](NC(=O)[C@H](C)NC(=O)[C@H](C)NC(=O)[C@H](CCCCN)NC(=O)[C@@H](NC(=O)[C@H](Cc1ccccc1)NC(=O)[C@H](CCCCN)NC(=O)[C@@H](C)N)C(C)C)[C@@H](C)O)C(=O)N[C@@H](CCCCN)C(=O)N[C@@H](C)C(=O)N[C@@H](C)C(=O)N[C@H](C)C(N)=O [Peptide 909.02] (H-[dA]KFVKAATLKAA[dA]-NH2) | – | – | – | – | – | – | – | – | – | 2.5 nM | 8 nM | 5660 nM | 4.7 nM | 33.3 nM | 5.7 nM | 208 nM |
